The record followed here is patent US7795261B2, “Substituted 1-piperidin-4-yl-4-pyrrolidin-3-yl-piperazine derivatives and their use as neurokinin antagonists” (Janssen Pharmaceutica NV, priority 2002, dated 2010).

The target in one test is T1, NK3 (Homo sapiens, UniProt P29371).
T1 sequence (P29371 1-465): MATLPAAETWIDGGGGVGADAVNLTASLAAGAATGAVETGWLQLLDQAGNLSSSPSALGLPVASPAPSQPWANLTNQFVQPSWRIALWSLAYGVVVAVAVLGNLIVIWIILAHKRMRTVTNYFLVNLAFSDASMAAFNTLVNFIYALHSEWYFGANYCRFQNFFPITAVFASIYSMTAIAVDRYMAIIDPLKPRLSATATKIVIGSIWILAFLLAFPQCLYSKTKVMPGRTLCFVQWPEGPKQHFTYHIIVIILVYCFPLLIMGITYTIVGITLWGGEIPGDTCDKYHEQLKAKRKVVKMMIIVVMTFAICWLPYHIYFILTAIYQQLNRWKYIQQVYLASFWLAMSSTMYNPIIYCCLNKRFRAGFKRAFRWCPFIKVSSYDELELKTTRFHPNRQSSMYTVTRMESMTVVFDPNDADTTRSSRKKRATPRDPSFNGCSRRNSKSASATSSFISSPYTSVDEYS
The test can be described thus: Signal transduction (ST), intracellular Ca++ (FLIPR), NK3. It is filed as cell-based. As to conditions: read-out: pIC50 NK3 (converted).

In the next test the target is NK1 (Homo sapiens, UniProt P25103). The test can be described thus: Signal transduction (ST), intracellular Ca++ (FLIPR), NK1 antagonistic activity. Particulars: read-out: pIC50 NK1 (converted). It is filed as cell-based. In short, it runs like this: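 Antagonist IC50 was fitted by non-linear regression of peak intracellular Ca++ signals measured on FLIPR after agonist challenge. Beforehand, Fluo3-loaded confluent cells received antagonists over a concentration range for 20 min at room temperature in Ca++ Krebs buffer, pH 7.4.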
Chain of NK1 (P25103 whole entry): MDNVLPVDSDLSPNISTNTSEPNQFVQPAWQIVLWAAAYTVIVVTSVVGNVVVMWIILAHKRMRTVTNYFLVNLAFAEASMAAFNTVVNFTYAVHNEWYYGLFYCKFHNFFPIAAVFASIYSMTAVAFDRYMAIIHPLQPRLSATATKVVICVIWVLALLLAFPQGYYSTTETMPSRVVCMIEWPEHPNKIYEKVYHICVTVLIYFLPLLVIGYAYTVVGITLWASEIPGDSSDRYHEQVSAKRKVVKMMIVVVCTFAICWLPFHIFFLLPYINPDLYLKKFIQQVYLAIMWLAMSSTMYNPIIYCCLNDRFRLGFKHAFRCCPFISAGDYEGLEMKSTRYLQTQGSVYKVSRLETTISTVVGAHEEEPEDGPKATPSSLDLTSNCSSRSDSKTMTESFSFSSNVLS

Consider `CC1(C(=O)N2CCC(N3CCN([C@H]4CCN(C(=O)c5cc(C(F)(F)F)cc(C(F)(F)F)c5)[C@H](Cc5ccccc5)C4)CC3)C2)CC1` (stereo partly shown) [Compound 73], for which the IC50 on NK3 was 1580 nM; at NK1, 10 nM.

`O=C(C1CCCC1)N1CCC(N2CCN([C@H]3CCN(C(=O)c4cc(C(F)(F)F)cc(C(F)(F)F)c4)[C@H](Cc4ccccc4)C3)CC2)C1` (stereo partly shown) [Compound 74]: the IC50 was 501 nM at NK3 and 20 nM at NK1.

As for `O=C(c1cnccn1)N1CCC(N2CCN(C3CCN(C(=O)c4cc(C(F)(F)F)cc(C(F)(F)F)c4)C(Cc4ccc(F)c(F)c4)C3)CC2)C1` (single isomer, unassigned) [Compound 237], the values for the IC50 at NK3 and at NK1 were 3980 nM and 10 nM, respectively.

As to `O=C1CC[C@H](C(=O)N2CCC(N3CCN([C@H]4CCN(C(=O)c5cc(C(F)(F)F)cc(C(F)(F)F)c5)[C@H](Cc5ccccc5)C4)CC3)C2)O1` (stereo partly shown) [Compound 387], the IC50 is 5010 nM on NK3 and 20 nM at NK1.

On to `COc1ccc2[nH]c(C(=O)N3CCC(N4CCN([C@H]5CCN(C(=O)c6cc(C(F)(F)F)cc(C(F)(F)F)c6)[C@H](Cc6ccccc6)C5)CC4)C3)cc2c1` (stereo partly shown) [Compound 55], for which the IC50 was 7940 nM at NK3 and 316 nM on NK1.

As for `Cc1nc2c(o1)CCn1ccnc1C2N1CCC(N2CCN(C3CCN(C(=O)c4cc(C(F)(F)F)cc(C(F)(F)F)c4)C(Cc4ccccc4)C3)CC2)C1` (stereo not shown) [Compound 375], the results for the IC50 at NK3 and on NK1 were 3980 nM and 12.6 nM, respectively.

For the compound `O=C(C1CCOC1)N1CCC(N2CCN(C3CCN(C(=O)c4cc(C(F)(F)F)cc(C(F)(F)F)c4)C(Cc4ccc(F)c(F)c4)C3)CC2)C1` (single isomer, unassigned) [Compound 242], the IC50 on NK3 was 2510 nM; on NK1, 10 nM.

As to `O=C(c1cc(C(F)(F)F)cc(C(F)(F)F)c1)N1CC[C@H](N2CCN(C3CCN(C(=C[N+](=O)[O-])N4CCCC4)C3)CC2)C[C@H]1Cc1ccccc1` (stereo partly shown) [Compound 377], the IC50 was 6310 nM at NK3 and 15.8 nM at NK1.

For `CC(C)(C)OC(=O)N1CCC[C@@H]1C(=O)N1CCC(N2CCN([C@H]3CCN(C(=O)c4cc(C(F)(F)F)cc(C(F)(F)F)c4)[C@H](Cc4ccccc4)C3)CC2)C1` (stereo partly shown) [Compound 189], the IC50 is 251 nM on NK3 and 7.94 nM on NK1.

In the case of `CC(C)(C)OCC(=O)N1CCC(N2CCN([C@H]3CCN(C(=O)c4cc(C(F)(F)F)cc(C(F)(F)F)c4)[C@H](Cc4ccccc4)C3)CC2)C1` (stereo partly shown) [Compound 388], the figures for the IC50 at NK3 and at NK1 were 794 nM and 15.8 nM, respectively.

As to `O=C(c1cc(C(F)(F)F)cc(C(F)(F)F)c1)N1CC[C@H](N2CCN(C3CCN(c4nc5ccccc5s4)C3)CC2)C[C@H]1Cc1ccccc1` (stereo partly shown) [Compound 7], the IC50 was 316 nM at NK3 and 200 nM on NK1.

Turning to `O=C(c1ccc(F)c(F)c1)N1CCC(N2CCN([C@H]3CCN(C(=O)c4cc(C(F)(F)F)cc(C(F)(F)F)c4)[C@H](Cc4ccccc4)C3)CC2)C1` (stereo partly shown) [Compound 20], the IC50 at NK3 was 5010 nM; on NK1 it was 126 nM.

Consider `O=C(C1COC2CCCCC2O1)N1CCC(N2CCN([C@H]3CCN(C(=O)c4cc(C(F)(F)F)cc(C(F)(F)F)c4)[C@H](Cc4ccccc4)C3)CC2)C1` (stereo partly shown) [Compound 99], for which the IC50 on NK3 is 3160 nM; at NK1, 7.94 nM.

Regarding `CC(C)N1CC(CN2CCC(N3CCN(C4CCN(C(=O)c5cc(C(F)(F)F)cc(C(F)(F)F)c5)C(Cc5ccccc5)C4)CC3)C2)OC1=O` (stereo not shown) [Compound 385], the results for the IC50 at NK3 and at NK1 were 3980 nM and 31.6 nM, respectively.

Consider `CC(C)(C)OC(=O)N1CCC(N2CCN(C3CCN(C(=O)c4cc(C(F)(F)F)cc(C(F)(F)F)c4)C(Cc4ccccc4)C3)CC2)C1` (stereo not shown) [Compound 130], for which the IC50 at NK3 is 3160 nM; at NK1, 39.8 nM.

For `COCC(=O)N1CCC(N2CCN(C3CCN(C(=O)c4cc(C(F)(F)F)cc(C(F)(F)F)c4)C(Cc4ccccc4)C3)CC2)C1` (stereo not shown) [Compound 177], the figures for the IC50 on NK3 and at NK1 were 2510 nM and 63.1 nM, respectively.

For `O=C(c1ccccc1)N1CCC(N2CCN(C3CCN(C(=O)c4cc(C(F)(F)F)cc(C(F)(F)F)c4)C(Cc4ccccc4)C3)CC2)C1` (stereo not shown) [Compound 3], the IC50 on NK3 was 1580 nM; at NK1, 126 nM.

On to `O=C(c1ccc(CCOCc2ccccc2)s1)N1CCC(N2CCN(C3CCN(C(=O)c4cc(C(F)(F)F)cc(C(F)(F)F)c4)C(Cc4ccccc4)C3)CC2)C1` (stereo not shown) [Compound 356], for which the IC50 at NK3 is 3980 nM; at NK1, 126 nM.

For the compound `O=C(CN1CCOC1=O)N1CCC(N2CCN([C@H]3CCN(C(=O)c4cc(C(F)(F)F)cc(C(F)(F)F)c4)[C@H](Cc4ccccc4)C3)CC2)C1` (stereo partly shown) [Compound 215], the results for the IC50 on NK3 and at NK1 were 5010 nM and 31.6 nM, respectively.

As to `O=C(C1CC1)N1CCC(N2CCN(C3CCN(C(=O)c4cc(C(F)(F)F)cc(C(F)(F)F)c4)C(Cc4ccc(F)cc4)C3)CC2)C1` (stereo not shown) [Compound 277], the IC50 was 2510 nM on NK3 and 10 nM at NK1.

In the case of `O=C(c1cccc2ccccc12)N1CCC(N2CCN([C@H]3CCN(C(=O)c4cc(C(F)(F)F)cc(C(F)(F)F)c4)[C@H](Cc4ccccc4)C3)CC2)C1` (stereo partly shown) [Compound 54], the IC50 at NK3 was 794 nM; on NK1, 39.8 nM.

As to `O=C(C(c1ccccc1)N1CCCC1)N1CCC(N2CCN(C3CCN(C(=O)c4cc(C(F)(F)F)cc(C(F)(F)F)c4)C(Cc4ccccc4)C3)CC2)C1` (stereo not shown) [Compound 108], the IC50 at NK3 was 2510 nM; on NK1, 31.6 nM.

Turning to `O=C(c1cccs1)N1CCC(N2CCN([C@H]3CCN(C(=O)c4cc(C(F)(F)F)cc(C(F)(F)F)c4)[C@H](Cc4ccccc4)C3)CC2)C1` (stereo partly shown) [Compound 42], the IC50 is 251 nM on NK3 and 25.1 nM at NK1.

Regarding `O=C(c1cc(C(F)(F)F)cc(C(F)(F)F)c1)N1CCC(N2CCN(C3CCN(S(=O)(=O)c4cccs4)C3)CC2)CC1Cc1ccc(F)c(F)c1` (single isomer, unassigned) [Compound 234], the figures for the IC50 at NK3 and at NK1 were 3160 nM and 10 nM, respectively.

Turning to `CC(C)(C)OCCC(=O)N1CCC(N2CCN(C3CCN(C(=O)c4cc(C(F)(F)F)cc(C(F)(F)F)c4)C(Cc4ccccc4)C3)CC2)C1` (stereo not shown) [Compound 391], the IC50 at NK3 is 3160 nM; at NK1, 20 nM.

As to `O=C(c1cc(C(F)(F)F)cc(C(F)(F)F)c1)N1CC[C@H](N2CCN(C3CCN(Cc4nc5ccccc5[nH]4)C3)CC2)C[C@H]1Cc1ccccc1` (stereo partly shown) [Compound 10], the values for the IC50 on NK3 and on NK1 were 6310 nM and 100 nM, respectively.

`O=C(C1COc2ccccc2O1)N1CCC(N2CCN([C@H]3CCN(C(=O)c4cc(C(F)(F)F)cc(C(F)(F)F)c4)[C@H](Cc4ccccc4)C3)CC2)C1` (stereo partly shown) [Compound 98]: the results for the IC50 at NK3 and at NK1 were 5010 nM and 12.6 nM, respectively.

Take `CC(=O)OCC(=O)N1CCC(N2CCN(C3CCN(C(=O)c4cc(C(F)(F)F)cc(C(F)(F)F)c4)C(Cc4ccccc4)C3)CC2)C1` (stereo not shown) [Compound 389]: the IC50 was 6310 nM at NK3 and 15.8 nM at NK1.

For `CC(C)(C)OC(=O)N1CCCC(C(=O)N2CCC(N3CCN([C@H]4CCN(C(=O)c5cc(C(F)(F)F)cc(C(F)(F)F)c5)[C@H](Cc5ccccc5)C4)CC3)C2)C1` (stereo partly shown) [Compound 229], the IC50 was 2510 nM on NK3 and 31.6 nM at NK1.
